According to US10967047B2, “Mitochondrial antiviral-signaling (MAVS) polypeptides and detection and use thereof” (University of Vermont and State Agricultural College, priority 2016, dated 2021):

Assays:
MEFs [1] = test: Mitochondrial transmembrane potential (ΔΨm) by FACS using TMRE in MEFs; type: cell-based, mouse
Protocol: (§1) ROS generation was measured using oxidized, green-fluorescent dihydrocalcein acetoxymethylester (DHC-AM) (Life Technologies) and flow cytometry. Single-cell suspensions of MEFs were prepared and ROS was assessed with 5 μM DHC-AM staining in culture medium for 30 minutes (A. Rohnstock et al., (2007) Toxicol in Vitro 21, 1552-1562). 25 nM of cationic cell permeant dye tetramethylrhodamine ethylester (TMRE; Life Technologies) (R. C. Scaduto, Jr. et al., (1999), Biophysical journal 76, 469-477) were used to measure ΔΨm. Additionally, MitoSox Red and MitoTracker Deep Red (Life Technologies) were used to measure mitochondrial ROS and mitochondrial mass, respectively. Flow cytometry was carried out on an LSRII (BD Biosciences), and FlowJo software (Tree Star) was used for analysis.

MEFs [2] = test: Oxygen consumption rate (OCR), Seahorse XF-24 extracellular flux analyzer, MEFs; type: cell-based, mouse; details: MAVS-WT MEFs (FIG. 1I, J)
Protocol: Real-time analysis of OCR and ECAR was performed with an XF-24 Extracellular Flux Analyzer (Seahorse Bioscience). Metabolic profiles were measured under basal conditions in non-buffered DMEM (Sigma) containing 25 mM glucose, 2 mM L glutamine, and 1 mM sodium pyruvate, in response to 1 μM oligomycin, 0.5 μM FCCP, and 1 μM rotenone/1 μM antimycin A (M. B. de Moura et al., (2014) Methods in molecular biology 1105, 589-602). Total ATP was measured with the ATP Lite Kit (Perkin Elmer), and the ATP/ADP ratio was determined using the bioluminescence ADP/ATP Ratio Assay Kit from Sigma.

MEFs [3] = test: ROS generation by FACS using DHC in MEFs; type: cell-based, mouse
Protocol: as §1

Drp1 = test: Phosphorylated Drp1 (Drp1 616p) at purified mitochondria, densitometry normalized to Cox IV; type: cell-based; details: 5′-ppp-RNA 1 μg/ml or GOx (FIG. 14A-B)
Protocol: To activate MAVS commercially available 5′-ppp-RNA was used at a concentration of 1 μg/ml, which activates RIG-I helicase. As an alternative GOx was used as previously described [Szeto, H. H., Br J Pharmacol, 2014. 171(8): p. 2029-50]. Mitochondria were purified by anti-Tom22 magnetic beads as previously described [Perl, A., et al., Int Rev Immunol, 2004. 23(3-4): p. 293-313]. Changes in the level of Drp1^616p at mitochondria were determined by densitometry, which was normalized to the level of Cox IV (FIG. 14A-B).

MAVS [4] = test: MAVS expression and oligomerization in the mitochondrial fraction of BMDCs treated with free dye; type: cell-based, mouse; details: increasing concentrations of free Alx488 dye (FIG. 7G)
MEFs [5] = test: IFN-I and IL-6 cytokine secretion by ELISA in MEF culture supernatants; type: cell-based, mouse; details: MAVS-WT MEFs
Protocol: ELISA was used to measure cytokine concentration in supernatant from cultured MEFs and BMDCs, and in sera of SLE patients and healthy control subjects. For assays, samples were centrifuged and IFN-β and IL-6 levels were measured in triplicate using murine or human ELISA kits according to the manufacturer's instructions. (PBL Biosciences). The fold change in IFN-I or IL-6 cells was calculated by directly comparing mock versus virus or chemical inducer of ROS.

MEFs [6] = test: Cell death by FACS using live-dead stain; type: cell-based, mouse; details: MitoPQ at the doses used (1 to 10 nM) (FIG. 2I)
MAVS [7] = test: MAVS oligomerization in MEFs (semi-denaturing gel electrophoresis, immunoblot, densitometry); type: cell-based, mouse
Protocol: 5′ triphosphate double-stranded RNA (5′-ppp-dsRNA), a synthetic ligand for RIG-I, was purchased from InVivoGen and used at a concentration of 1 μg/mL. Mitochondria-targeted antioxidant MitoQ and the mitochondria-targeted superoxide generator MitoPQ, were gifts of M. Murphy (G. F. Kelso et al., (2001) The Journal of biological chemistry 276, 4588-4596). The control reagent TPP was purchased from Sigma. Reagents were added to cells at concentrations as indicated. GOx was purchased from Sigma and added to cultured cells at a final concentration of 0.1 U/mL. Iodoacetamide was from Thermo Fisher, and used at a final concentration of 100 μM.
Cultured MEFs or human PBMCs were lysed in a sample buffer containing 2% SDS and insoluble cell fragments were removed by centrifugation. Plasma samples derived from SLE patients were collected and stored at −20° C. until gel electrophoresis. BCA protein assay (Thermo Scientific) was used to determine protein concentrations in all samples were resolved with SDS-PAGE under denaturing conditions. Gels were transferred to PVDF membranes using a Trans-Blot Turbo Transfer System (BioRad).
(§2) SDD-AGE was performed according to a published protocol with minor modifications (Alberti et al., (2009) Cell 137, 146-158). In brief, mitochondria were resuspended in sample buffer (0.5×TBE, 10% glycerol, 2% SDS, and 0.0025% bromophenol blue) and loaded onto a vertical 1.5% agarose gel. After electrophoresis in the running buffer (1×TBE and 0.1% SDS) for 35 min with a constant voltage of 75 V at 4° C., proteins were transferred to PVDF membranes using a Trans-Blot Turbo Transfer System (BioRad) for immunoblotting.
PVDF membranes were blocked in 5% solution of nonfat powdered milk in Tris-buffered saline. Antibodies used were specific for MAVS and Actin (Santa Cruz); RIPK1 and TRAF2 (BD Biosciences); TANK, TRADD, RIG-I, and GAPDH (Cell Signaling); MDAS and COX4 (Abcam), Alexa 488 (Life Technologies), and IRF3 (Thermo Fisher), respectively. Immunoreactive proteins were visualized using HRP-labeled conjugates (Jackson Immuno Research) and developed using Clarity Western ECL substrate (Biorad). Chemiluminescence was detected and recorded using a Biorad Chemidoc instrument. Densitometric measurements were performed in Image Lab image acquisition and analysis software (Biorad).

MAVS [8] = test: MAVS oligomerization in human PBMC and plasma (semi-denaturing agarose gel electrophoresis); type: cell-based
Protocol: MAVS-deficient and matching WT MEFs, gift of Z. J. Chen (Z. J. Chen et al. (2005) Cell 122, 669-682), were maintained in Dulbecco's modified Eagle's medium (DMEM) (Hyclone), supplemented with 10% heat-inactivated fetal calf serum (FCS) (Hyclone), 100 mM L-glutamine (Cellgro Mediatech), and 10,000 units/mL penicillin/10 mg/mL streptomycin sulfate (Life Technologies). C57BL6 or B6; 129-Mavstm1Zjc/J mice (The Jackson Laboratory, Bar Harbor, Me.) were maintained at the University of Vermont under a protocol approved by the Institutional Animal Care and Use Committee. Murine BMDCs were prepared as described by Inaba et al. (K. Inaba et al., (1992) Journal of Experimental Medicine 176, 1693-1702). In brief, cells derived from femur bone marrow were cultured at a density of 5×10^5/mL in 10-cm plates in RPMI 1640 (HyClone), supplemented with 5% heat-inactivated FCS, 100 mmol L-glutamine, 100 mmol sodium pyruvate, 10,000 units/mL penicillin/10 mg/mL streptomycin sulfate, 5×10^−5 mol 2-mercaptoethanol (Sigma, St. Louis, Mo.), and 10 μg/mL GM-CSF (Life Technologies). Human subjects were enrolled under a protocol approved by the University of Vermont Institutional Review Board. Samples from 17 SLE patients fulfilling the American College of Rheumatology diagnostic criteria were studied (E. M. Tan et al., (1982) Arthritis and Rheumatism 25, 1271-1277). 16 out of 17 patients were female, and the age of study participants was 47±3. The disease activity was assessed by the SLE disease activity index (SLEDAI) scores, ranging from 0 to 10 (C. Bombardier et al., (1992) Arthritis and Rheumatism 35, 630-640). Upon informed consent, primary human PBMCs were obtained from heparinized whole-blood samples from SLE patients. Control PBMCs were generated from age-, sex-, and ethnicity-matched healthy subjects. PBMCs were isolated using standard Ficoll gradient centrifugation as previously described (R. Mallone et al., (2011) Clin. and Exp. Immunol. 163, 33-49). Cells were either used immediately to prepare lysates for immunoblotting or cultured at a density of 5×10^5/mL in a 12-well culture plate with RPMI 1640 (HyClone), supplemented with 5% heat-inactivated FCS, 100 mmol L-glutamine, 100 mmol sodium pyruvate, and 10,000 units/mL penicillin/10 mg/mL streptomycin sulfate. Enriched monocytes from PBMCs were used to prepare hDCs using negative magnetic bead selection (Miltenyi), and were subsequently cultivated for 6 d in 10 μg/mL GM-CSF and 500 U/mL IL-4. All cells were maintained in a humidified chamber at 37° C. and 5% CO2.
as §2
PVDF membranes were blocked in 5% solution of nonfat powdered milk in Tris-buffered saline. Antibodies used were specific for MAVS and Actin (Santa Cruz); RIPK1 and TRAF2 (BD Biosciences); TANK, TRADD, RIG-I, and GAPDH (Cell Signaling); MDAS and COX4 (Abcam), Alexa 488 (Life Technologies), and IRF3 (Thermo Fisher), respectively. […] Chemiluminescence was detected and recorded using a Biorad Chemidoc instrument. […]

[9] = Total thiol concentration of PBMC and plasma homogenates; set-up: species or system human
MAVS oligomers = molecular target: T1, MAVS oligomers (Homo sapiens, UniProt Q7Z434); test: Membrane lipid-strip blot: interaction of lipids with MAVS oligomers isolated from SLE patients; type: binding; details: lipid strips exposed to 1 μg/ml MAVS oligomer from SLE patients (FIG. 15B)
T1 construct: The strips were exposed to 1 μg/ml of MAVS oligomer isolated from SLE patients; from tissue; host or cells: SLE patient material, immunoprecipitated with anti-MAVS antibody on protein G magnetic beads
T1 sequence (Q7Z434 whole entry): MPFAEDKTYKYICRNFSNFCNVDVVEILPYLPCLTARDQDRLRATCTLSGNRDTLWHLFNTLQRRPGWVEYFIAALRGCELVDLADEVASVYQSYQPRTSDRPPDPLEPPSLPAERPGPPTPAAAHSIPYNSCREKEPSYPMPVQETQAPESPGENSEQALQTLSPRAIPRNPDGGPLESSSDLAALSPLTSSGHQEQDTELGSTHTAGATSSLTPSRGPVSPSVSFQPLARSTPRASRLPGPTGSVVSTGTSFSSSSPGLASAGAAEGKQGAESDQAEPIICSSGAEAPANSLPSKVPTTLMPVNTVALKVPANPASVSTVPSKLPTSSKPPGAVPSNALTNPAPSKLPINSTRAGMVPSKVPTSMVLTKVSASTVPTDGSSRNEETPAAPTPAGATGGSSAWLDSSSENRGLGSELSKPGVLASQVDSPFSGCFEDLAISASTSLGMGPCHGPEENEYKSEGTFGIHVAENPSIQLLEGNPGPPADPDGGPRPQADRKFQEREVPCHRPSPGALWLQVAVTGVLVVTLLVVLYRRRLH
Protocol: To assess MAVS oligomer interaction a plate coated with anti-phospholipid antibody was prepared and was later was saturated with purified CL. The same plate was exposed to purified and Alx488 labeled MAVS oligomers from mock or GOx treated healthy controls, or from SLE patients as previously published [Szeto, H. H., Br J Pharmacol, 2014. 171(8): p. 2029-50]. Following washing, fluorescence of captured MAVS oligomers was measured. As a control we used recombinant, purified and Alx488 labeled MAVS monomers. Results are shown in FIG. 15A with data shown as mean±SEM, with results representative of two experiments. […] Tests were performed on membrane lipid-strips (Echelon Biosciences). The strips were exposed to 1 μg/ml of MAVS oligomer isolated from SLE patients. The strips were washed with mild detergent and treated with phospholipase A2 (PLA2).

With “5′ triphosphate double-stranded RNA [5′-ppp-RNA]” the “ΔΨm induced by the substance” value (MEFs [1]; MAVS-WT MEFs, not observed in MAVS-KO (FIG. 1B, 2D)) was “increased”, the “basal OCR versus mock-treated cells” value (MEFs [2]) was “significantly lower basal OCR” and the ROS after transfection (MEFs [3]; MAVS-WT MEFs, initial 12 h, 1 μg 5′-ppp-RNA (FIG. 1A)) was “increased”. For the same molecule, the “level of phosphorylated Drp1 at mitochondria after MAVS activation” value (Drp1) was “lower levels of phosphorylated Drp1 at mitochondria”.
In the case of `N=c1ccc2c(-c3ccc(C(=O)O)cc3C(=O)O)c3ccc(N)c(S(=O)(=O)O)c3oc-2c1S(=O)(=O)O` [Alx488, Alexa Fluor 488], the “MAVS expression or oligomerization with free fluorophore” value (MAVS [4]) is reported as “did not lead to increased MAVS expression or oligomerization”.
With `C[n+]1ccc(-c2cc[n+](CCCCCCCCCC[P+](c3ccccc3)(c3ccccc3)c3ccccc3)cc2)cc1.[I-].[I-].[I-]` [MitoPQ, MitoParaquat] the “IFN-I secretion induced by the substance” value (MEFs [5]; not observed in MAVS-KO (FIG. 2E, 2J)) was “significant increase”, the “IL-6 secretion induced by the substance” value (MEFs [5]; not observed in MAVS-KO (FIG. 2F, 2K)) was “significant increase” and the cell death (MEFs [6]) was “without causing significant cell death”. For the same molecule, the “superoxide within mitochondria / ROS” value (MEFs [3]; MEFs, MitoPQ 1 to 10 nM (FIG. 2G)) was “increased amount of superoxide within mitochondria” and the “induction of MAVS oligomerization without viral infection” value (MAVS [7]; MEFs, substance alone (MitoPQ 1 to 10 nM, FIG. 2H; GOx, FIG. 2A)) was “MAVS oligomerization”.
For `CCCCCCCCCC[P+](c1ccccc1)(c1ccccc1)c1ccccc1` [dTPP], the “MAVS oligomerization after pretreatment” value (MAVS [7]; MEFs pretreated (100 μM) before GOx or SINV (FIG. 3A)) was “did not demonstrate reversal of MAVS oligomerization”.
In the case of `NC(=O)CI` [iodoacetamide], the “MAVS oligomers with thiol blocking during homogenization” value (MAVS [8]; cells homogenized in buffer with 100 μM iodoacetamide after GOx or SINV (FIG. 9)) is reported as “did not result in a decrease in MAVS oligomers”, the “detection of MAVS oligomers in SLE cells or plasma with thiol blocking” value (MAVS [8]; iodoacetamide added to SLE PBMC and plasma samples (FIG. 9)) is reported as “did not decrease the detection of MAVS oligomers” and the “reduction of total thiol concentration, PBMCs” value ([9]; PBMC homogenates (FIG. 9)) is reported as 80%. For the same molecule, the “reduction of total thiol concentration, plasma” value ([9]; plasma homogenates (FIG. 9)) was 94%.
In the case of `OCCS` [β-Me, β-mercaptoethanol], the “GOx-induced MAVS oligomerization in PBMCs after pretreatment” value (MAVS [8]; healthy-donor PBMCs pretreated with MitoQ or grown in presence of β-Me, then GOx (FIG. 4A)) is reported as “MAVS oligomerization did not occur”, the “mitochondrial hyperpolarization in GOx-treated cells” value (MEFs [1]; media supplemented with β-Me, GOx (FIG. 2D)) is reported as “prevented mitochondrial hyperpolarization” and the “reversal of GOx-induced MAVS oligomerization” value (MAVS [7]; cell media supplemented with β-Me (FIG. 2A)) is reported as “reversible”. For the same molecule, the “reversal of SINV-induced MAVS oligomerization” value (MAVS [7]; cell media supplemented with β-Me, SINV infection (FIG. 2A)) was “only a portion of the MAVS oligomers were reducible”.
In the case of cardiolipin [CL], the “interaction with MAVS oligomers” value (MAVS oligomers) is reported as “significant interaction”.
